Results reported in paper PMC9569529, “Safe and Efficient Sigma1 Ligand: A Potential Drug Candidate for Multiple Sclerosis” (International Journal of Molecular Sciences, 2022).
pKi: −log10 of the molar value. Blank lines part the entries; values can stand above or below the molecule they belong to.

How the values were obtained:
S2R = molecular target: T1, S2R (Homo sapiens, UniProt Q5BJF2); test: S2R binding assay, [3H]-DTG, Jurkat cell membranes
T1 construct: host or cells: Jurkat cell membranes
Procedure: The binding assays were performed by Eurofins Cerep (Poitiers, France) according to Ganapathy. Briefly, S1R)binding assay was carried out by incubating Jurkat cell membranes ([…] protein per tube) with [^3H] (+)-pentazocine (15 nM) and a range of concentrations of test compounds at 37 °C for 2 h in 5 mM Tris HCl buffer (pH = 7.4). The S2R binding assay was performed by incubating Jurkat cell membranes ([…] protein per tube) with [^3H]-DTG (25 nM) in the presence of (+)-pentazocine (1 mM), to saturate S1R, and a range of concentrations of test compounds at room temperature for 1 h in 5 mM Tris HCl buffer (pH = 7.4). Bound radioactivity was measured using liquid scintillation counting. Nonspecific binding was determined in both assays, under similar conditions, as remaining in the presence of […] unlabeled haloperidol. Inhibition constants (Ki) were calculated from the IC50 values according to the method of Cheng and Prusoff.

[1] = system: dizocilpine-induced learning deficits; test: Dizocilpine-induced learning deficits, Y-maze spontaneous alternation; type: in vivo, male Swiss mice
Procedure: (§1) The activity of compound 7i was evaluated in regard to its ability to reverse dizocilpine-induced learning deficits. Two behavioral tests were performed by Amylgen (Montferrier-sur-Lez, France) on male Swiss mice (aged 6–9 weeks). All compounds (7i and controls) were intraperitoneally injected.
(§2) Animals were tested for spontaneous alternation performance in the Y-maze, an index of spatial working memory. Made of grey polyvinylchloride, the Y-maze has an arm which is 40 cm long, 13 cm high and 3 cm wide at the bottom and 10 cm wide at the top, converging at an equal angle. Each mouse was placed at the end of one arm and allowed to move freely through the maze during an 8-min session. The series of arm entries, including possible returns into the same arm, were checked visually. An alternation was defined as entries into all three arms on consecutive occasions. The number of maximum alternations was therefore the total number of arm entries minus two, and the percentage of alternation was calculated as: (actual alternations/maximum alternations) × 100. Parameters included the percentage of alternation (memory index) and the total number of arm entries (exploration index). Animals showing extreme behavior (alternation < 20% or >90% or number of arm entries < 10) are usually discarded from the calculations. […] Step-through latency (the latency in time spent to enter the dark compartment) and the number of vocalizations were recorded. […] Step-through latency was recorded up to 300 s. When either the mouse entered the dark compartment or 300 s had elapsed (they were therefore manually placed in it), escape latency (latency to exit from the dark compartment) was recorded with a value of up to 300 s. […]

[2] = system: dizocilpine-induced learning deficits; test: Dizocilpine-induced learning deficits, step-through passive avoidance; type: in vivo, male Swiss mice
Procedure: as §1, §2

S. typhimurium TA100 = details: 7i 40 µg/plate
[3] = system: 40 different receptors relevant to CNS disease; set-up: method as in PMID 28756263; details: 40 receptors relevant to CNS disease; cited from earlier work
QT interval = test: ECG QT interval analysis under isoflurane anesthesia; details: for QT Interval Basal / QT Interval 3 min / QT Interval 6 min / QT Interval 10 min / QT Interval 20 min / QT Interval 30 min: in ms (unit assumed); for QT Interval 3 min: 3 min after injection; for QT Interval 6 min: 6 min after injection; for QT Interval 10 min: 10 min after injection; for QT Interval 20 min: 20 min after injection; for QT Interval 30 min: 30 min after injection
five bacterial strains = test: Ames test, overall conclusion on five bacterial strains; details: ±S9, 0.37 to 40 µg/plate

T1 sequence (Q5BJF2 whole entry): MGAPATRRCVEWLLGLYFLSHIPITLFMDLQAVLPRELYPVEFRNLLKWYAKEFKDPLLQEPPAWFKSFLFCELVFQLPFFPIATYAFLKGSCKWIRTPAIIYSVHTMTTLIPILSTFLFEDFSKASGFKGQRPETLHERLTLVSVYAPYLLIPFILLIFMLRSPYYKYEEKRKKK

pKi (S2R): < 6.00
SMILES: O=C(NCCCNCc1ccccc1)c1ccc(Cl)cc1 [compound 7i-deMe]

SMILES: CN(CCCNC(=O)c1ccc(Cl)cc1)Cc1ccccc1 [compound 7i]
dizocilpine-induced learning deficits, Y-maze spontaneous alternation ([1]; 0.5 mg/kg i.p., dizocilpine 0.15 mg/kg): significantly attenuated
beneficial effect in Y-maze with NE-100 treatment ([1]; plus NE-100 at 3 mg/kg i.p.): prevented
dizocilpine-induced learning deficits, passive avoidance ([2]; 0.1 and 0.5 mg/kg i.p., dizocilpine 0.15 mg/kg): significantly attenuated
beneficial effect in passive avoidance with NE-100 treatment ([2]; plus NE-100 at 3 mg/kg i.p.): prevented
Ames TA100 +S9 (Mean revertants/well per title) (S. typhimurium TA100; +S9, positive control 2-anthramine 0.5): 0.9
Ames TA100 −S9 (Mean revertants/well per title) (S. typhimurium TA100; −S9, positive control MNNG 0.25): 0.9
off-target selectivity profile [3]: excellent highly selective profile
QT Interval Basal (QT interval; 0.5 mg/kg i.p. group): 49 ± 3
QT Interval 3 min (QT interval; 0.5 mg/kg i.p.): 48 ± 4
QT Interval 6 min (QT interval; 0.5 mg/kg i.p.): 46 ± 4
QT Interval 10 min (QT interval; 0.5 mg/kg i.p.): 53 ± 3
QT Interval 20 min (QT interval; 0.5 mg/kg i.p.): 59 ± 4
QT Interval 30 min (QT interval; 0.5 mg/kg i.p.): 58 ± 3
QT Interval Basal (QT interval; 1.0 mg/kg i.p. group): 48 ± 1
QT Interval 3 min (QT interval; 1.0 mg/kg i.p.): 45 ± 2
QT Interval 6 min (QT interval; 1.0 mg/kg i.p.): 46 ± 2
QT Interval 10 min (QT interval; 1.0 mg/kg i.p.): >49 ± 1
QT Interval Basal (QT interval; 10.0 mg/kg i.p. group): 46 ± 1
QT Interval 3 min (QT interval; 10.0 mg/kg i.p.): 43 ± 1
QT Interval 6 min (QT interval; 10.0 mg/kg i.p.): 45 ± 3
QT Interval 10 min (QT interval; 10.0 mg/kg i.p.): 49 ± 2
QT Interval 20 min (QT interval; 10.0 mg/kg i.p.): 52 ± 1
QT Interval 30 min (QT interval; 10.0 mg/kg i.p.): 54 ± 1
cardiac repolarization (QT interval), conclusion (QT interval; 0.5 to 10 mg/kg i.p.): no alteration in cardiac repolarization
heart rate, PR and QRS duration (QT interval; 0.5 to 10 mg/kg i.p.): did not alter
pro-arrhythmic effect (QT interval; 0.5 to 10 mg/kg i.p.): does not induce a pro-arrhythmic effect
mutagenic effects (Ames, conclusion) (five bacterial strains): no mutagenic effects
